According to patent US11969397B2, “Composition for preventing and treating transplant rejection or transplant rejection diseases, comprising novel compound and calcineurin inhibitor” (THE CATHOLIC UNIVERSITY OF KOREA INDUSTRY-ACADEMIC …, priority 2018, dated 2024):

Columns and labels:
Foxp3 Treg cells = test: Treg activity under Th17 differentiation condition in in vitro allogenic model (mouse cells); assay type: cell-based; conditions: 4 days, SD282 20 and 500 μM, FK506 1 and 5 nM, combination FK506 1, 5 nM + SD282 250 μM
Experimental: (§1) CD4+ T cells derived from a normal recipient (Balb/c, responder) (2×10^5 cells) were injected into each well of a 96-well round bottom plate, in vitro. Thereafter, for syngenic transplantation, normal recipient-derived T cell-removed splenocytes (2×10^5 cells), which had been irradiated with radiation, were added to each of the wells, followed by culturing under mixing. For allogenic transplantation, donor (C57BL/6, stimulator)-derived T cell-removed splenocytes were added to each of the wells, followed by culturing under mixing.
The allogenic models of Example 1-1 were treated with 20 and 500 μM of SD282 alone or 1 and 5 nM of FK506 alone. And, FK506 (1 and 5 nM) and SD282 (250 μM) were treated in combination, respectively. The isolated T cells were cultured for 4 days under the condition of Th17 cell differentiation so as to induce the differentiation to Th17 cells.

allogenic T cells = test: T cell proliferation in in vitro allogenic transplantation model (mouse cells); assay type: cell-based; conditions: cultured 4 days; for T cell proliferation (3H-thymidine incorporation, FIG. 1): SD282 alone 250 μM or more, FK506 alone 1 and 5 nM, combination FK506 1 and 5 nM + SD282 250 μM; for T cell proliferation (flow cytometry, FIG. 2): SD282 alone, FK506 alone or combination
Experimental: as §1
In order to evaluate T cell proliferations according to the treatment with SD282 alone, FK506 alone or in combination thereof, the untreated syngenic group and the untreated allogenic group of Example 1-1 were used as controls. The allogenic model was treated with 50, 250 and 500 μM of SD282 alone or 1 and 5 nM of FK506 alone. And, FK506 (1 and 5 nM) and SD282 (250 μM) were treated in combination, respectively. After the treatments, each group was cultured for 4 days and then alloresponses were evaluated by observing the T cell proliferations of the cultured cells, according to the 3H-thymidine incorporation method, the CFSE assay method, or the flow cytometry method.
In addition, in order to evaluate the synergistic effect according to the treatment of SD282 and FK506 in combination, the Combination Index (CI) value (drug treatment) was calculated. The CI value was obtained by the following equation. A value of 1 or less means that there is a synergistic effect between the combination of two drugs, and a value of 1 or more means that there is an antagonistic effect between the combination of two drugs.

[1] = test system: PBMCs of a liver-transplanted patient; test: Microarray / KEGG pathway and gene regulation in PBMCs of a liver-transplanted patient; assay type: cell-based, human; conditions: CD3 stimulation, 48 hours, SD282 250 μM
Experimental: In order to investigate changes in the signal factors related to immune cell modulation according to drug treatments in the peripheral blood cells (PBMCs) of a liver-transplanted patient, the PBMCs were treated with 250 μM of SD282 alone, 5 nM of FK506 alone, and the combination thereof, under the condition of TCR stimulation (under the CD3 stimulation). After culturing for 48 hours, the microarray analyses thereof were carried out by Macrogen, Inc.

IL-17, IFN-γ and TNF-α = test: Inflammatory cytokines in normal human PBMCs under allo-response (ELISA); assay type: cell-based; conditions: allogenic, 4 days, compared to the group treated with FK506 alone
Experimental: In order to evaluate the inhibitions against the activities of inflammatory cytokines according to the treatment with SD282 alone, FK506 alone, or in combination thereof in normal human peripheral blood cells (PBMCs), an untreated syngenic group and an untreated allogenic group were used as controls. Allogenic models were treated with 5, 250 and 500 μM of SD282 alone or 1 and 5 nM of FK506 alone. And, 1 and 5 nM of FK506 and 250 μM SD282 were treated in combination, respectively. After the treatments, each group was cultured for 4 days and then the inhibitory effects against IL-17, IFN-γ and TNF-α in the cultured cells was evaluated according to the ELISA method, so as to evaluate alloresponses.

pathogenic Th17 cells = test: Inhibition of pathogenic Th17 cells / IL-17 in in vitro allogenic model (mouse cells); assay type: cell-based; conditions: 4 days, anti-CD3 0.1 μg/ml, SD282 50, 250, 500 μM, FK506 1, 5 nM, combination FK506 1, 5 nM + SD282 250 μM
Experimental: as §1
The T cell response regulates the activity of Th17 (T helper 17 cell)/IL-17 (Interleukin 17) and IL-17 is classified as an inflammatory cytokine. […] We also evaluated inhibitory activity against inflammatory cytokines according to the treatments with SD282 and FK506 alone or in combination. The untreated syngenic group and the untreated allogenic group of Example 1-1 were used as controls. The allogenic models were treated with 50, 250 and 500 μM of SD282 alone or 1 and 5 nM of FK506 alone. And, FK506 (1 and 5 nM) and SD282 (250 μM) were treated in combination, respectively. After the treatments, each group was cultured for 4 days and then stimulated with anti-CD3 (0.1 μg/ml). The inhibitory efficacy against IL-17+CD4+ T cells and IL-17 was evaluated by analyzing the cultured Th17 cells according to the ELISA method; and the proliferation of Fox3+ Treg cells was evaluated through the analysis of Treg cells.

[2] = test system: allogenic T cells (normal human PBMCs); test: T cell proliferation in normal human PBMCs (MLR, CFSE); assay type: cell-based; design: T cell proliferation (FIG. 13a): dose or concentration left out as unconfirmed; conditions: for proliferation of allogenic T cells (FIG. 13b): 4 days, FK506 1 and 5 nM, SD282 alone, combination FK506 1, 5 nM + SD282 250 μM
Experimental: In order to evaluate the T cell proliferations according to the treatment with SD282 alone, FK506 alone, or in combination thereof in normal human PBMCs (peripheral blood mononuclear cells, PBMCs), mixed leukocyte reaction (MLR) and CFSE (carboxyfluorescein succinimidyl ester) staining were performed. An untreated syngenic group and an untreated allogenic group were used as controls. […] And, FK506 (1 and 5 nM) and SD282 (250 μM) were treated in combination, respectively. After the treatments, each group was cultured for 4 days and then alloresponses were evaluated by observing the T cell proliferations of the cultured cells, according to the 3H-thymidine incorporation method or the flow cytometry method.

## CCN(C(=N)NC(=N)N)c1ccc(F)cc1 [SD282]
Foxp3 Treg cells
  proliferation of Treg cells (Foxp3, flow cytometry): significantly increased
Allogenic T cells
  T cell proliferation (3H-thymidine incorporation, FIG. 1): significantly inhibited
  T cell proliferation (flow cytometry, FIG. 2): inhibited
[1]
  various pathways increased in a liver-transplanted patient (KEGG): inhibited
IL-17, IFN-γ and TNF-α
  activity of IFN-γ (ELISA): more significantly inhibited
  activity of IL-17 (ELISA): more significantly inhibited
  activity of TNF-α (ELISA): more significantly inhibited
Pathogenic Th17 cells
  IL-17+CD4+ T cells (%) / proliferation of pathogenic Th17 cells: inhibited
  activity of the inflammatory cytokine IL-17 (ELISA): inhibited
[2]
  proliferation of allogenic T cells (FIG. 13b): significantly inhibited
[2]; 4 days, or more of SD282 alone, compared to control group
  T cell proliferation (FIG. 13a): inhibited

## C=CC[C@@H]1/C=C(\C)C[C@H](C)C[C@H](OC)[C@H]2O[C@@](O)(C(=O)C(=O)N3CCCC[C@H]3C(=O)O[C@H](/C(C)=C/[C@@H]3CC[C@@H](O)[C@H](OC)C3)[C@H](C)[C@@H](O)CC1=O)[C@H](C)C[C@@H]2OC [FK506, tacrolimus]
Foxp3 Treg cells
  proliferation of Treg cells (Foxp3, flow cytometry): did not increase
Foxp3 Treg cells; listed as Fk506
  proliferation of Treg cells (Foxp3, flow cytometry): significantly increased
Allogenic T cells
  T cell proliferation (3H-thymidine incorporation, FIG. 1): not effective
  T cell proliferation (flow cytometry, FIG. 2): inhibited
Pathogenic Th17 cells
  IL-17+CD4+ T cells (%) / proliferation of pathogenic Th17 cells: did not effectively inhibit
  activity of the inflammatory cytokine IL-17 (ELISA): did not effectively inhibit
Pathogenic Th17 cells; listed as Fk506
  IL-17+CD4+ T cells (%) / proliferation of pathogenic Th17 cells: inhibited
  activity of the inflammatory cytokine IL-17 (ELISA): inhibited
[2]
  proliferation of allogenic T cells (FIG. 13b): not effective
